The values below come from US20150025131A1 (priority 2013, published 2015).

Entries after “also recorded” stand apart in the source; their conditions may differ.

The assay concerns serum peroxide. Kind of assay: Adjuvant induced arthritis model, serum peroxide. Type of assay: in vivo, Sprague Dawley rats. The settings on record: AIA rats, daily intraperitoneal; Patuletin 25 mg/kg, indomethacin 5 mg/kg. The procedure:
All studies were carried out using Female Sprague Dawley (SD) rats weighing 150-250 gms. Animals were kept at 21±2° C. and on a 12-h light/dark cycle, received standardized pelleted diet and tap water. Experiments were performed under the ethical guidelines of the International Association for the study of pain in conscious animals. Each group contains 12 animals with randomly distributed weights into each treatment group.
Arthritis was induced by injecting freshly prepared 100 μL of 1 mg suspension of lyophilized Mycobacterium tuberculosis H37Ra (MT H37Ra; DIFCO Laboratories, Detroit, Mich., USA), subcutaneously at the rat tail base using sterile hypodermic needle. […]
Peroxide (PO) and nitric oxide (NO), in serum were determined in the serum samples of both the normal and arthritic groups, using quantitative colorimetric assay kits, i.e., the Quantichrom ™ Nitric Oxide Assay Kit, and the Quantichrome™ Peroxide assay kit Diox-250 (BioAssay Systems, Hayward, Calif., USA). […] The samples were analyzed in duplicates using 96-well plate and the plate was read at 540 nm. The Quantichrome™ Peroxide assay kit Diox −250 system is an improved method which utilizes the oxidation of Fe^++ by peroxide present in the analyzed sample resulting in formation of purple complex that gives the accurate measure of peroxide level in the sample when read at 540-610 nm.

For the compound `COc1c(O)cc2oc(-c3ccc(O)c(O)c3)c(O)c(=O)c2c1O` [Patuletin, 3,5,7,3′,4′-pentahydroxy-6-methoxy flavones], the “level of peroxide in serum versus arthritic control group” value is reported as “decrease; also recorded: non-significant reduction”.
